Patent EP0462621A2, “Use of particular compounds for manufacture of pharmaceutical formulations for treatment against various parasites, mycoplasmas, other indications and other infections” (Prendergast, Patrick Thomas, priority 1990, dated 1991)

Legend:
HIV-1 = HIV-1 production from patients' lymphocytes cocultured with PHA-stimulated normal PBL, p24 antigen capture; assay type: cell-based; settings: 3.75 µM or higher; Figure 14
Method: HIV-1 production from an AIDS patients' lymphocytes was carried out as described previously. Briefly, 10x10^6 patients' lymphocytes were cocultured with 5x10^6 PHA-stimulated normal PBL in RPMI 1640 medium containing 20% FBS, 5% interleukin 2 (Cellular Products, Buffalo, NY) and various concentrations of IPA. The culture was continued for 4 weeks. The culture was fed twice a week with 2-3x10^6 PHA-stimulated normal PBL. Culture medium was withdrawn twice a week and tested for the presence of HIV by the antigem capture test. Culture medium was replaced with new medium with or without drug at 3-4 days intervals.
A study of IPA inhibition of HIV-1 production from lymphocytes of a HIV-1 seropositive patient was carried out. For this purpose, lymphocytes from an AIDS patient and an asymtomatic patient were cocultured with PHA stimulated PBL in the presence or absence of IPA. Results shown in Figure 14 indicate that IPA inhibited HIV-1 production in a dose dependent manner. […] In contrast, HIV-1 was detected in untreated cultures as early as 7 days following cocultivation.

T lymphocytes = experiment: Lymphocyte blastogenesis assay, T lymphocytes (PHA); assay type: cell-based, human
Method: T and B lymphocytes from normal human donors were incubated for 30 minutes at various dose levels of the compounds indicated. The lymphocytes were added in triplicate wells in gentamicin and phytohemagglutinin (PHA) (a T cell mitogen), pokeweed mitogen (PWM) (a B cell mitogen) and allogeneic mononuclear cells (mixed leukocyte cultures; MLC) or media containing the above additives. The lymphocyte blastogenesis assay is described in detail below.
The data are represented as the mean of the three replicates. The results are presented in Charts la(e) (i) and la(e) (ii) (Figs. 1 and 2). […] A reduction of both T lymphocytes' abilities to proliferate was obtained when 100 u.M or greater concentrations of IPA was added to the cell cultures. Proliferative activity of T lymphocytes by 25% at the 30 u.M concentration of IPA in the experiment.
• 1. Mononuclear cells are separated from whole blood by differential centrifugation using a synthetic separation medium, or are thawed from a cryopreserved preparation. The cells are washed and resuspended in media (RPMI - 1640, L-Glutamine 2mM, Herpes Buffer 25mM, Gentamicin 50 ug/ml, Human AB Serum-heat inactivated (56°, 30°) 20%). • 2. A viable cell count is determined. • 3. Cell concentration is adjusted to 2 x 10^6 /ml in media. • 4. The cell suspension is added to wells of a 96-well flat bottom plate in 0.1 ml aliquots (2 x 10^5 cells). • 5. The selected mitogens and/or antigens (in media without serum) are added to the cells in the wells also in 0.1 ml aliquots. • 6. The cultures are incubated for 3-7 days (depending upon the mitogen or antigen) at 37° C in a humidified 5% C02 atmosphere. • 7. Six to eight hours before termination of cultures 0.05 ml (1 µCi) of ^3HTdR sp. act 6.7 Ci/mM (20 µCi/ml stock) is added to each well. • 8. At termination of cultures the cells are harvested onto strips of scintillation-grade fibreglass paper using a multiple sample harvester. • 9. Perforated disks from the fibreglass paper of the harvested cultures are placed each into scintillation vials to which is then added 5 ml of toluene based scintillation cocktail. • 10. The vials are counted in a liquid scintillation counter for one minute where the amount of incorporated ^3HTdR is determined.
net CPM = xCPM of mitogen/antigen cultures - xCPM of media cultures.

Epstern-Barr Virus (EBV) = experiment: P3HR1 cells, EBV, immunofluorescence; assay type: cell-based; settings: P3HR1 cells in-vitro
Method: Experiments were carried out using concentrated P3HR1 […]. […] Infection of Raji cells by infectious EBV induces early antigens (EA) in the cells in proportion to the titer of infectious virus. EA was detected using a monoclonal antibody.
The assay was set up with Raji cells exposed for 2 hours to serial 10 fold dilutions of the P3HR1 virus. Excess virus was separated by centrifugation and removed. Aliquots of cells infected at each dilution were distributed into 12 well trays (0.5 ml/well), and 0.5 ml of medium containing twice the desired final medium concentration was added to each well.
At 24 and 72 hours, aliquots of each well were washed, added to Teflon® outlined wells on a glass slide, air dried to attach then to the glass, and then fixed with acetone-methanol (50:50). Standard immunofluorescence procedures were followed to quantify the percent of cells containing virus at each time, virus dilution and drug concentration.

cytomegilovirus = experiment: M413 cells, CMV; assay type: cell-based, cytomegalovirus (CMV)
Method: Confluent monolayers of M413 cells (a type of dipliod human fibroblast cells) in 48 well microtiter plates were used. They were grown in Dulbecco's MEM (minimum essential medium) supplemented with 10% fetal bovine serum and 50 ug/ml gentamicin.
Stock cytomegalovirus (CMV) was diluted in a series of 10-fold dilutions in the above medium, and […] amounts were added to the wells of the microtiter plates and allowed to absorb virus for 90 minutes at 37 °C.
Unabsorbed virus was removed by aspiration and 0.5 ml of medium containing dilutions of drug was added to duplicate wells at each concentration of virus.
After incubating for 5 days, fresh medium was added to each well, no additional drug being included, and the plates were scored for cytopathic effects the next day. The viruses produce characteristic enlarged rounded cells in a cellular background that is completely devoid of such cells.
The data were expressed as the reciprocal of the greatest dilution producing any of the characteristic rounded cells (the "titer"), and the percent inhibition was calculated by comparing the experimental titer with the control titer, with intermediate results interpreted as those of Experiment la(a).
The procedure described for Experiment la(j) was followed with cytomegalovirus (CMV) substituted for MAB to HSV-1.

L donovani = experiment: Amastigote-promastigote (AM-PRO) transformation, in-vitro; assay type: cell-based; settings: Ld.
[1] = Case study two: HIV positive patient, IPA orally; assay type: in vivo, human
Method: In another case study, […], a homosexual person, was diagnosed HIV positive in June, 1986. […] was also diagnosed as having hepatitis at that time. Beginning on May 7, 1990, IPA was administered orally to […] On May 7, 1990, […] was experiencing (1) weight loss, (2) night sweats, (3) thrush, (4) fungal infections, (5) pneumonia, (6) diarrhea, and (7) hairy leukoplakia.
Prior to treatment with IPA, V.T. had experienced diarrhea and night sweats for the previous six weeks. […] […] […] As of July 26, 1990, V.T.'s helper/suppressor ration was 0.93.

L major/L mexicana = experiment: Amastigote-promastigote (AM-PRO) transformation, in-vitro; assay type: cell-based; settings: Lm.

CC(C)=CCNc1ncnc2c1ncn2[C@@H]1O[C@H](CO)[C@@H](O)[C@H]1O [IPA, N^6-(Δ^2-isopentenyl) adenosine]
Virus production (HIV-1 p24 antigen capture assay) (HIV-1): completely blocked | T lymphocyte responsiveness (T lymphocytes; 10 µM, third experiment): Increased | T lymphocyte function (T lymphocytes; 1000 µM down to 10 µM, third experiment (Figs. 7 and 8)): reductions | T lymphocyte proliferation (T lymphocytes; 0.1 - 10 µM, first experiment): No effect or an increase | reduction in T lymphocyte function (T lymphocytes; 30 -35 u.M, third experiment): ~25% | T lymphocyte proliferation (T lymphocytes; 30 down to 10 u.M, second experiment (Figs. 3 and 4)): No appreciable reduction | Proliferative activity of T lymphocytes, change (T lymphocytes; 30 u.M, first experiment): 25% | T lymphocytes' abilities to proliferate (T lymphocytes; 100 u.M or greater, first experiment (Figs. 1 and 2)): reduction | levels of Epstern-Barr Virus (EBV) (Epstern-Barr Virus (EBV)): reduces | levels of cytomegilovirus in cells in-vitro (cytomegilovirus): reduces | Activity, AM-PRO transform-ation (L donovani): + + | toxic side effects [1]: no permanent toxic side effects | weight stabilized at [1]: 133 lbs | hairy leukoplakia ([1]; IPA orally): complete remission | helper/suppressor ratio ([1]; July 26, 1990): 0.93 | weight ([1]; June 11, 1990, 119 lbs on May 7, 1990 (start of IPA)): 132 lbs | helper/suppressor ratio ([1]; June 21, 1990, 0.53 on May 7, 1990): 0.65 | T4 count ([1]; June 21, 1990, 207 on May 7, 1990): 330 | time in which diarrhea and night sweats cleared ([1]; after the beginning of the treatment, symptoms for the previous six weeks): ≤ 48 h | weight gain ([1]; over the first month of treatment): about 0.5 lbs per day | Activity, AM-PRO transform-ation (L major/L mexicana): + +
